Counter-ions that a name gives are not always drawn. Like-named read-outs stand apart in the source and are kept apart here.
What was measured:
[1] = molecular target: muscarinic cholinergic receptor; assay type: binding, rat; conditions: pH 7.4
[2] = molecular target: muscarinic cholinergic receptor; experiment: [^3 H]-Cis-methyldioxolane (^3 H-CD) Binding Assay (High Affinity); conditions: rat cerebral cortex, ^3 H-CD 1.0 nM, 25° C., 120 minutes, pH 7.4; high affinity agonist binding
[3] = rat cerebral cortex, ^3 H-QNB 0.25 nM, 25° C., 120 minutes

Row | Compound | Ki [1, 3] [µM] | Ki [2] [µM] | Ki ([1]; read-out: ^3 H-QNB Ki) [µM]
1 | O=C(OCc1ccccc1)O[C@@H]1CCN(CC#CCN2CCCC2)C1=O [(R)-Carbonic acid 2-oxo-1-[4-(1-pyrrolidinyl)-2-butynyl]-3-pyrrolidinyl phenylmethyl ester] | 1.4 | 0.11 | 
2 | COC(=O)O[C@@H]1CCN(CC#CCN2CCCC2)C1=O [(R)-Carbonic acid methyl 2-oxo-1-[4-(1-pyrrolidinyl)-2-butynyl]-3-pyrrolidinyl ester] | 27.3 | 0.35 | 
3 | CCCCCCCCOC(=O)O[C@@H]1CCN(CC#CCN2CCCC2)C1=O [(R)-Carbonic acid octyl 2-oxo-1-[4-(1-pyrrolidinyl)-2-butynyl]-3-pyrrolidinyl ester] | 0.1 | 0.076 | 
4 | CCCCCCCCCC(=O)O[C@@H]1CCN(CC#CCN(C)C)C1=O [(R)-Decanoic acid 1-[4-(dimethylamino)-2-butynyl]-2-oxo-3-pyrrolidinyl ester] | > 100 | 0.73 | 
5 | CCCCCCCCCC(=O)O[C@@H]1CCN(CC#CCN2CCCC2)C1=O [(R)-Decanoic acid 2-oxo-1-[4-(1-pyrrolidinyl)-2-butynyl]-3-pyrrolidinyl ester] | 0.2 | 0.097 | 
6 | CC(C)C(=O)O[C@@H]1CCN(CC#CC[N+](C)(C)C)C1=O [(R)-N,N, N-Trimethyl-4-[3-(2-methyl-1-oxopropoxy)-2-oxo-1-pyrrolidinyl]-2-butyn-1 aminium iodide] | 45 | 0.24 | 
7 | CCCCCCCCNC(=O)O[C@@H]1CCN(CC#CC[N+](C)(C)C)C1=O [(R)-N,N, N-Trimethyl-4-[3-[[(octylamino)carbonyl]oxy]-2-oxo-1-pyrrolidinyl]-2-butyn-1-aminium iodide] | 0.5 | 0.49 | 
8 | CCCCCCCCOC(=O)O[C@@H]1CCN(CC#CC[N+](C)(C)C)C1=O [(R)-N,N, N-Trimethyl-4-[3-[[(octyloxy)carbonyl]oxy]-2-oxo-1-pyrrolidinyl]-2-butyn-1-aminium iodide] | 0.2 | 0.01 | 
9 | CCCCCCCCNC(=O)O[C@@H]1CCN(CC#CCN(C)C)C1=O [(R)-Octylcarbamic acid 1-[4-(dimethylamino)-2-butynyl]-2-oxo-2-pyrrolidinyl ester] | 32 | 1.43 | 
10 | CCCCCCCCNC(=O)O[C@@H]1CCN(CC#CCN2CCCC2)C1=O [(R)-Octylcarbamic acid 2-oxo-1-[4-(1-pyrrolidinyl)-2-butynyl]-3-pyrrolidinyl ester] | 0.2 | 0.24 | 
11 | CC(C)C(=O)O[C@@H]1CCN(CC#CCN(C)C)C1=O [(R)-Porpanoic acid 2-methyl-1-[4-(dimethylamino)-2-butynyl]-2-oxo-3-pyrrolidinyl ester] | 711 | 26 | 
12 | CC(C)(C)[Si](C)(C)O[C@H]1CCN(CC#CCN2CCC2)C1=O [(S)-1-[4-(1-Azetidinyl)-2-butynyl]-3-[[(1,1-dimethylethyl)-dimethylsilyl]oxy]-2-pyrrolidinone] | 5.8 | 5.6 | 
13 | CS[C@H]1CCN(CC#CCN(C)C)C1=O [(S)-1-[4-(Dimethylamino)-2-butynyl]-3-(methylthio)-2-pyrrolidinone] | > 100 | 6.4 | 
14 | CN(C)CC#CCN1CC[C@H](O[Si](C)(C)C(C)(C)C)C1=O [(S)-1-[4-(Dimethylamino)-2-butynyl]-3-[[(1,1-dimethylethyl)-dimethylsilyl]oxy]-2-pyrrolidinone] | 14.3 | 18.2 | 
15 | CN(C)CC#CCN1CC[C@H](O)C1=O [(S)-1-[4-(Dimethylamino)-2-butynyl]-3-hydroxy-2-pyrrolidinone] | 26.9 | 0.043 | 
16 | C[C@H]1CCN(CC#CCN(C)C)C1=O [(S)-1-[4-(Dimethylamino)-2-butynyl]-3-methyl-2-pyrrolidinone] | 35.5 | 0.68 | 
17 | CCN(CC)CC#CCN1CC[C@H](O[Si](C)(C)C(C)(C)C)C1=O [(S)-1-[4-(diethylamino)-2-butynyl]-3-[[(1,1-dimethylethyl)dimethylsily]oxy]-2-pyrrolidinone] | 7.6 | 15.4 | 
18 | CN(C)CC#CCN1CC[C@H](OC(=O)C(C)(C)C)C1=O [(S)-2,2-Dimethylpropanoic acid 1-[4-(dimethylamino)-2-butynyl]-2-oxo-3-pyrrolidinyl ester] | 484 | 38.8 | 
19 | CC(C)(C)C(=O)O[C@H]1CCN(CC#CCN2CCCC2)C1=O [(S)-2,2-Dimethylpropanoic acid 2-oxo-1-[4-(1-pyrrolidinyl)-2-butynyl]-3-pyrrolidinyl ester] | 4.6 | 0.37 | 
20 | CC(C)C(=O)O[C@H]1CCN(CC#CCN2CCCC2)C1=O [(S)-2-Methylpropanoic acid 2-oxo-1-[4-(1-pyrrolidinyl)-2-butynyl]-3-pyrrolidinyl ester] | 7.2 | 0.162 | 
21 | CC(=O)O[C@H]1CCN(CC#CCN(C)CCO)C1=O [(S)-3-(Acetyloxy)-1-[4-[2-(hydroxyethyl)methylamino]-2-butynyl]-2-pyrrolidinone] | > 100 | 16.2 | 
22 | CC(=O)O[C@H]1CCN(CC#CCN(C)CCCCO)C1=O [(S)-3-(Acetyloxy)-1-[4-[(4-hydroxybutyl)methylamino]-2-butynyl]-2-pyrrolidinone] | > 100 | 8.21 | 

Row | Compound | Ki [1, 3] [µM] | Ki [2] [µM] | Ki ([1]; read-out: ^3 H-QNB Ki) [µM]
23 | CS[C@H]1CCN(CC#CCN2CCCC2)C1=O [(S)-3-(Methylthio)-1-[4-(1-pyrrolidinyl)-2-butynyl]-2-pyrrolidinone] | 53 | 1.04 | 
24 | N[C@H]1CCN(CC#CCN2CCCC2)C1=O [(S)-3-Amino-1-[4-(1-pyrrolidinyl)-2-butynyl]-2-pyrrolidinone dihydrochloride] | 73.6 | 0.41 | 
25 | CN(C)CC#CCN1CC[C@H](N)C1=O [(S)-3-Amino-1-[4-(dimethylamino)-2-butynyl]-2-pyrrolidinone dihydrochloride] | > 100 | 2.6 | 
26 | [N-]=[N+]=N[C@H]1CCN(CC#CCN2CCCC2)C1=O [(S)-3-Azido-1-[4-(1-pyrrolidinyl)-2-butynyl]-2-pyrrolidinone] | 3.14 | 0.16 | 
27 | CN(C)CC#CCN1CC[C@H](N=[N+]=[N-])C1=O [(S)-3-Azido-1-[4-(dimethylamino)-2-butynyl]-2-pyrrolidinone] | > 100 | 0.63 | 
28 | O=C1[C@@H](O)CCN1CC#CCn1ccnc1 [(S)-3-Hydroxy-1-[4(1H-imidazol-1-yl)-2-butynyl]-2-pyrrolidinone] | > 100 | 0.12 | 
29 | O=C1[C@@H](O)CCN1CC#CCN1CCCC1 [(S)-3-Hydroxy-1-[4-(1-pyrrolidinyl)-2-butynyl]-2-pyrrolidinone] | 1.7 | 0.007 | 
30 | CN(CC#CCN1CC[C@H](O)C1=O)CCO [(S)-3-Hydroxy-1-[4-[(2-hydroxyethyl)methylamino]-2-butynyl]-2-pyrrolidinone] | > 100 | 1.82 | 
31 | CN(CC#CCN1CC[C@H](O)C1=O)CCCCO [(S)-3-Hydroxy-1-[4-[(4-hydroxybutyl)methylamino]-2-butynyl]-2-pyrrolidinone] | > 100 | 1.3 | 
32 | CC(C)(C)[Si](C)(C)O[C@H]1CCN(CC#CCN2CCCC2)C1=O [(S)-3-[[(1,1-Dimethylethyl)-dimethylsily]0xy]-1-[4-(1-pyrrolidinyl)-2-butynyl]-2-pyrrolidinone] | 2.7 | 3 | 
33 | CC(C)(C)[Si](C)(C)O[C@H]1CCN(CC#CCn2ccnc2)C1=O [(S)-3-[[(1,1-Dimethylethyl)dimethylsilyl]oxy]-1-[4-(1H-imidazol-1-yl)-2-butynyl]-2-pyrrolidinone] | > 100 | 24.3 | 
34 | CNC(=O)O[C@H]1CCN(CC#CCN2CCCC2)C1=O [(S)-3-[[Methylamino)carbonyl]oxy]-1-[4-(1-pyrrolidinyl)-2-butynyl]-2-pyrrolidinone] | 433 | > 100 | 
35 | C[N+](C)(C)CC#CCN1CC[C@H](N=[N+]=[N-])C1=O [(S)-4-(3-Azido-2-oxo-1-pyrrolidinyl)-N,N,N-trimethyl-2-butyn-1-aminium iodide] | 1.6 | 0.045 | 
36 | CC(C)(C)C(=O)O[C@H]1CCN(CC#CC[N+](C)(C)C)C1=O [(S)-4-[3-(2,2-Dimethyl-1-oxopropoxy)-2-oxo-1-pyrrolidinyl]-N,N, N-trimethyl-2-butyn-1-aminium iodide] | 478 | 7.8 | 
37 | COC(=O)O[C@H]1CCN(CC#CCN(C)C)C1=O [(S)-Carbonic acid 1-[4-(dimethylamino)-2-butynyl]-2-oxo-3-pyrrolidinyl methyl ester] | 15.1 | 2.16 | 
38 | CCCCCCCCOC(=O)O[C@H]1CCN(CC#CCN(C)C)C1=O [(S)-Carbonic acid 1-[4-(dimethylamino)-2-butynyl]-2-oxo-3-pyrrolidinyl octyl ester] | 10 | 0.306 | 
39 | CCCCCCOC(=O)O[C@H]1CCN(CC#CCN2CCCC2)C1=O [(S)-Carbonic acid hexyl 2-oxo-1-[4-(1-pyrrolidinyl)-2-butynyl]-3-pyrrolidinyl ester] | 1.7 | 0.015 | 
40 | COC(=O)O[C@H]1CC(=O)N(CC#CCN2CCCC2)C1 [(S)-Carbonic acid methyl 2-oxo-1-[4-(1-pyrrolidinyl)-2-butynyl]-4-pyrrolidinyl ester] | 1.8 | 0.85 | 
41 | CCCCCCCCCC(=O)O[C@H]1CCN(CC#CCN(C)C)C1=O [(S)-Decanoic acid 1-[4-(dimethylamino)2-butynyl]-2-oxo-3-pyrrolidinyl ester] | 0.6 | 0.023 | 
42 | CCCCCCCCCC(=O)O[C@H]1CC(=O)N(CC#CCN2CCCC2)C1 [(S)-Decanoic acid 2-oxo-1-[4-(1-pyrrolidinyl)-2-butynyl]-4-pyrrolidinyl ester] | 0.035 | 0.33 | 
43 | CN(C)C(=O)O[C@H]1CCN(CC#CCN2CCCC2)C1=O [(S)-Dimethylcarbamic acid 2-oxo-1-[4-(1-pyrrolidinyl)-2-butynyl]-3-pyrrolidinyl ester] |  | 9.56 | 40.3

Source: patent US5637731A (priority 1996, dated 1997)
